# Results: PMC9362525 (Diabetologia, 2022)
# Like-named read-outs stand apart in the source and are kept apart here.
# Legend:
# [1] = test system: men with T1DM and healthy men; type: in vivo, human
# human delta cells = type: cell-based
# [2] = test system: youth with type 2 diabetes; type: in vivo, human
# EndoC-βH1 cells = type: cell-based, human; conditions: 100 nM
# patients with T2D = type: in vivo, human; conditions: for change in LVEF with acipimox: resting
# [3] = test system: skeletal muscle of type 2 diabetes patients; conditions: 5 weeks
# [4] = test system: individuals with prediabetes; conditions: 2 weeks
# T2DM and NGT subjects = conditions: for EGP after drug: 10 mg single dose, 4 hours; for increase in renal glucose production (RGP): non-significant
# [5] = test system: patients with obesity and T2D; type: in vivo, human
# [6] = test system: β-cells from Ins2GFP knock-in mice; type: cell-based, mouse
# [7] = test system: people with type 2 diabetes; type: in vivo, human
# [8] = test system: human subcutaneous primary preadipocytes; type: cell-based; conditions: for reduction of basal and insulin-stimulated glucose uptake: dose-dependent, exposure during differentiation
# [9] = FAERS 2013 Q1-2020 Q4
# [10] = test system: adult participants, liver steatosis by VCTE; conditions: multivariable adjusted
# HFD/STZ C57Bl/6 mice = type: in vivo, mouse
# C57BL/6J mice = type: in vivo, mouse
# patients with T2DM = type: in vivo, human; conditions: all
# [11] = test system: wounds of streptozotocin-diabetic C57BL/6 mice; type: in vivo, mouse
# human β-cells = type: cell-based
# [12] = 10 mg once daily, LS mean (95% CI)
# [13] = before RYGB, GIP […], GLP-1 1 pmol/kg/min, ~15 mM glucose
compound,measurement,setting,value
3-hydroxybutyrate [3-OHB],blood D-3-OHB concentration during infusion,"[1]; CTR, from 0.2±0.03",1.0 ± 0.1 mmol/L
same,circulating FFA concentration after infusion,"[1]; CTR, from 0.48±0.09",0.21 ± 0.04 mmol/L
same,blood D-3-OHB concentration during infusion,"[1]; T1DM, from 0.2±0.06",1.2 ± 0.12 mmol/L
same,circulating FFA concentration after infusion,"[1]; T1DM, from 0.68±0.12",0.15 ± 0.03 mmol/L
CNC[C@H](O)c1ccc(O)c(O)c1 [adrenaline],change in K+-stimulated exocytosis,human delta cells,+56%
same,change in K+-stimulated exocytosis vs diazoxide only,human delta cells,-59%
dulaglutide,BMI change,[2]; 26 weeks,No effect
same,incidence of diarrhoea,[2]; pooled doses,18.4%
same,incidence of nausea,[2]; pooled doses,14.6%
same,incidence of vomiting,[2]; pooled doses,15.5%
same,patients requiring rescue therapy,"[2]; pooled doses 0.75 and 1.5 mg, 26 weeks",2.9%
insulin-like growth factor binding protein 7 [IGFBP7],insulin secretion normalised to total insulin,"EndoC-βH1 cells; 72 h, CTRL 5.2, n=4",4.0 %/h
same,C-peptide secretion at 20 mM glucose,"EndoC-βH1 cells; acute, CTRL 111, n=5",90 ng/mg prot/h
Cc1cnc(C(=O)O)c[n+]1[O-] [acipimox],reduction of FFAs,"patients with T2D; acute, at all visits",~ 35%
same,change in LVEF with acipimox,patients with T2D; during empagliflozin treatment,-6±2%
same,change in LVEF with acipimox,patients with T2D; during insulin treatment,-5.4±1%
CCOc1ccc(Cc2cc([C@@H]3O[C@H](CO)[C@@H](O)[C@H](O)[C@H]3O)ccc2Cl)cc1 [dapagliflozin],PCr recovery rate,[3]; [12],23.1 (20.7-25.5) s
same,acetylcarnitine levels in muscle,[3]; [12],114.56 (91.16-137.95) pmoles*mg tissue^-1
same,lipid droplet size,[3]; [12],0.28 (0.20-0.36) μm^2
same,mitochondrial network integrity,[3]; [12],1.73 (1.33-2.12)
same,mitochondrial-LD interaction,[3]; [12],12.51 (9.70-15.32) %
same,CPT1A gene expression increase,[3]; muscle biopsy,1.33 fold
same,CPT1B gene expression increase,[3]; muscle biopsy,1.13 fold
same,urinary glucose excretion,[4]; 10mg/day,36 gram/24-hour
same,24-hour RER,"[4]; 10mg/day, whole-room indirect calorimetry",0.814 ± 0.006
same,coupled mitochondrial respiration on lipid-derived substrates (O2-flux),[4]; ex vivo skeletal muscle,68.2 ± 3.2 pmol/mg/s
same,EGP after drug,T2DM and NGT subjects; NGT,2.1±0.16
same,increase in renal glucose production (RGP),T2DM and NGT subjects; NGT,0.032 mg/kg.min
same,EGP after drug,T2DM and NGT subjects; T2DM,2.43±0.15
same,increase in renal glucose production (RGP),T2DM and NGT subjects; T2DM,0.065 mg/kg.min
same,increase in total body EGP,T2DM and NGT subjects; in vivo,0.45 mg/kg.min
glucose-dependent insulinotropic peptide [GIP],augmentation of second phase insulin secretion vs saline-clamp,[5]; 3 months after RYGB,+90±14%
same,augmentation of second phase insulin secretion vs saline-clamp,[5]; [13],+96±16%
CCCC(=O)O [sodium butyrate],Ins2 gene activity state,[6],inducing transitions from Ins2^GFP(low) states to Ins2^GFP(high) states
CCc1ccc(CCOc2ccc(CC3SC(=O)NC3=O)cc2)nc1 (centres unmarked) [pioglitazone],achieved HbA1c,"[7]; 16 weeks, pioglitazone 30mg, sitagliptin 100mg, canagliflozin 100mg",59.5 mmol/mol
same,weight on therapy higher than other drugs,[7]; [95%CI],"2.6 [2.3, 2.9] kg"
"O=C1CCc2ccc(OCCCCN3CCN(c4cccc(Cl)c4Cl)CC3)cc2N1 [ARI, aripiprazole]",reduction of basal and insulin-stimulated glucose uptake,[8],≤ 70%
same,reduction of preadipocyte differentiation rate,"[8]; supra-therapeutic concentrations, 14 days",≤ 80%
CCCCCCCCCCCCCCCC(=O)N[C@@H](CCC(=O)NCCCC[C@H](NC(=O)[C@H](C)NC(=O)[C@H](C)NC(=O)[C@H](CCC(N)=O)NC(=O)CNC(=O)[C@H](CCC(=O)O)NC(=O)[C@H](CC(C)C)NC(=O)[C@H](Cc1ccc(O)cc1)NC(=O)[C@H](CO)NC(=O)[C@H](CO)NC(=O)[C@@H](NC(=O)[C@H](CC(=O)O)NC(=O)[C@H](CO)NC(=O)[C@@H](NC(=O)[C@H](Cc1ccccc1)NC(=O)[C@@H](NC(=O)CNC(=O)[C@H](CCC(=O)O)NC(=O)[C@H](C)NC(=O)[C@@H](N)Cc1cnc[nH]1)[C@@H](C)O)[C@@H](C)O)C(C)C)C(=O)N[C@@H](CCC(=O)O)C(=O)N[C@@H](Cc1ccccc1)C(=O)N[C@H](C(=O)N[C@@H](C)C(=O)N[C@@H](Cc1c[nH]c2ccccc12)C(=O)N[C@@H](CC(C)C)C(=O)N[C@H](C(=O)N[C@@H](CCCNC(=N)N)C(=O)NCC(=O)N[C@@H](CCCNC(=N)N)C(=O)NCC(=O)O)C(C)C)[C@@H](C)CC)C(=O)O [liraglutide],PRR for gallbladder or biliary diseases,[9],5.001
"CCC(CCC(C)=O)COC(=O)c1ccccc1C(=O)O (centres unmarked) [MEOHP, mono(2-ethyl-5-oxohexyl) phthalate]",OR for NAFLD per unit increase of urinary concentration,[10],1.01
C=C[C@@]1(C)CC(=O)[C@]2(O)[C@@]3(C)[C@@H](O)CCC(C)(C)[C@@H]3[C@H](O)[C@H](OC(C)=O)[C@@]2(C)O1 [forskolin],change in K+-stimulated exocytosis vs diazoxide only,human delta cells,+68%
dehydroaripiprazole [DARI],reduction of basal and insulin-stimulated glucose uptake,[8],≤ 70%
Irisin,change in body weight vs HFD/STZ,"HFD/STZ C57Bl/6 mice; 0.5 μg/g, 14 days",-13%
same,change in glycemia vs HFD/STZ,"HFD/STZ C57Bl/6 mice; 0.5 μg/g, 14 days, n=4",-31%
same,change in GSIS AUC vs HFD/STZ,"HFD/STZ C57Bl/6 mice; mouse, in vivo",+23%
same,change in alpha-cell area vs HFD/STZ,"HFD/STZ C57Bl/6 mice; mouse, in vivo",-49%
same,change in beta-cell area vs HFD/STZ,"HFD/STZ C57Bl/6 mice; mouse, in vivo",+34%
same,change in insulin content vs HFD/STZ,"HFD/STZ C57Bl/6 mice; mouse, in vivo",+36%
same,change in islets volume vs HFD/STZ,"HFD/STZ C57Bl/6 mice; mouse, in vivo",+61%
same,increase in beta-cell proliferation rate,HFD/STZ C57Bl/6 mice; vs SD and HFD/STZ,9 fold
same,final body weight,"C57BL/6J mice; 0.5 μg/g i.p., 4 weeks, HFD 49.67 ± 1.48",44.87 ± 1.42 g
same,fat mass,C57BL/6J mice; HFD 14.56 ± 0.43,11.75 ± 0.78 g
same,fat/weight,C57BL/6J mice; HFD 29.37 ± 0.75,26.08 ± 1.09%
N=C(N)NCCC[C@H](N)C(=O)O [arginine],Ins2 gene activity state,[6],inducing transitions from Ins2^GFP(low) states to Ins2^GFP(high) states
glucagon-like peptide-1 [GLP-1],augmentation of second phase insulin secretion vs saline-clamp,[5]; 3 months after RYGB,+233±32%
same,augmentation of second phase insulin secretion vs saline-clamp,[5]; [13],+399±84%
same,Ins2 gene activity state,[6],inducing transitions from Ins2^GFP(low) states to Ins2^GFP(high) states
"Cc1cc2c(s1)Nc1ccccc1N=C2N1CCN(C)CC1 [OLA, olanzapine]",adipogenesis or lipid and glucose metabolism,[8]; 0.2 and 2 μM during differentiation,did not affect
same,increase in LEP expression,[8]; present during differentiation,~ 2 fold
COc1ccc(Cl)cc1C(=O)NCCc1ccc(S(=O)(=O)NC(=O)NC2CCCCC2)cc1 [glibenclamide],incidence of severe hypoglycaemia,patients with T2DM,1.3 % per year
GABA,change in K+-stimulated exocytosis vs diazoxide only,human delta cells,+66%
"CCC(CCC(C)O)COC(=O)c1ccccc1C(=O)O (centres unmarked) [MEHHP, mono(2-ethyl-5-hydroxyhexyl) phthalate]",OR for NAFLD per unit increase of urinary concentration,[10],1.01
Bone morphogenetic protein-7 [BMP7],acceleration of wound closure,"[11]; 0.5 μg per wound/day topical, vs vehicle",20%
same,number of lymphocytes in diabetic wounds,"[11]; mouse, in vivo",did not change
same,collagen deposition higher,[11]; vs vehicle-treated wounds,35%
same,increase in area of granulation tissue,[11]; vs vehicle-treated wounds,50%
same,reduction in number of macrophages,[11]; vs vehicle-treated wounds,30%
NC(=O)N1c2ccccc2CC(=O)c2ccccc21 [oxcarbazepine],cytokine- and ER stress-induced β-cell death,human β-cells,protected
